Reference: ChEMBL document CHEMBL1201862, “PubChem BioAssay data set” (2004)
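Where inhibition never reached the appropriate level, the endpoint shown equals the highest concentration tested. Otherwise, values were interpolated linearly from a five-concentration, 48-hour dose response in 96-well plates. At the GI50, growth is halved.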 Active and inactive are the calls of the source. No stated cut-off is given here; in the data, active = GI50 up to about 1.1 µM and inactive = higher.

How the values were obtained:
Experiment in all cases: growth of human tumour cells (NCI), 48 h
UACC-62 = system: UACC-62
LOX IMVI = system: LOX IMVI
K562 = system: K562
OVCAR-4 = system: OVCAR-4
HT-29 = system: HT-29
HCT-15 = system: HCT-15
CAKI-1 = system: CAKI-1
NCI-H226 = system: NCI-H226
SK-MEL-2 = system: SK-MEL-2
Malme-3M = system: Malme-3M
MOLT-4 = system: MOLT-4
UO-31 = system: UO-31
NCI-H460 = system: NCI-H460
RXF 393 = system: RXF 393
KM12 = system: KM12
OVCAR-3 = system: OVCAR-3
U-251 = system: U-251
SNB-19 = system: SNB-19
NCI-H522 = system: NCI-H522
SF-268 = system: SF-268

Row | SMILES | GI50 (UACC-62) | GI50 (LOX IMVI) | GI50 (K562) | GI50 (OVCAR-4) | GI50 (HT-29) | GI50 (HCT-15) [µM] | GI50 (CAKI-1) | GI50 (NCI-H226) | GI50 (SK-MEL-2) | GI50 (Malme-3M) | GI50 (MOLT-4) | GI50 (UO-31) | GI50 (NCI-H460) | GI50 (RXF 393) | GI50 (KM12) | GI50 (OVCAR-3) | GI50 (U-251) | GI50 (SNB-19) | GI50 (NCI-H522) | GI50 (SF-268)
1 | CCOC(=O)c1csc(NC(=O)CN2CCN(C)CC2)n1 | > 100 µM (inactive) | > 100 µM (inactive) | > 100 µM (inactive) | > 100 µM (inactive) | > 100 µM (inactive) | > 100 | > 100 µM (inactive) | > 100 µM (inactive) | > 100 µM (inactive) | > 100 µM (inactive) | > 100 µM (inactive) | > 100 µM (inactive) | > 100 µM (inactive) | > 100 µM (inactive) | > 100 µM (inactive) | > 100 µM (inactive) | > 100 µM (inactive) | > 100 µM (inactive) | – | –
2 | CCOc1ccc(/N=N/c2ccc3oc(=O)c(/C(C)=N\NC(=O)CC(=O)Nc4ccc(Cl)cc4)cc3c2)cc1 | 10.1 µM (inactive) | 13.2 µM (inactive) | 17.3 µM (inactive) | 20.4 µM (inactive) | – | 6.25 | > 100 µM (inactive) | 88.9 µM (inactive) | 3.43 µM (inactive) | 16 µM (inactive) | 4.09 µM (inactive) | 12.2 µM (inactive) | – | 14.2 µM (inactive) | 19.2 µM (inactive) | 15.5 µM (inactive) | 16.4 µM (inactive) | 27.3 µM (inactive) | 18.6 µM (inactive) | 19.6 µM (inactive)
3 | O=P(NCCCO)(OCc1ccccc1)N(CCCl)CCCl (stereo unspecified) | > 100 µM (inactive) | > 100 µM (inactive) | > 100 µM (inactive) | > 100 µM (inactive) | > 100 µM (inactive) | > 100 | > 100 µM (inactive) | > 100 µM (inactive) | > 100 µM (inactive) | > 100 µM (inactive) | > 100 µM (inactive) | > 100 µM (inactive) | > 100 µM (inactive) | > 100 µM (inactive) | > 100 µM (inactive) | > 100 µM (inactive) | > 100 µM (inactive) | > 100 µM (inactive) | > 100 µM (inactive) | > 100 µM (inactive)
4 | CCOC(=O)C(NC(=O)CC)(Nc1ccccc1F)C(F)(F)F (stereo unspecified) | 42.2 µM (inactive) | > 100 µM (inactive) | 86.9 µM (inactive) | > 100 µM (inactive) | > 100 µM (inactive) | > 100 | > 100 µM (inactive) | – | > 100 µM (inactive) | – | > 100 µM (inactive) | > 100 µM (inactive) | > 100 µM (inactive) | > 100 µM (inactive) | > 100 µM (inactive) | > 100 µM (inactive) | > 100 µM (inactive) | > 100 µM (inactive) | > 100 µM (inactive) | > 100 µM (inactive)
5 | O=C1N(Cc2ccccc2)C2CSCC2N1Cc1ccccc1 (stereo unspecified) | 27.4 µM (inactive) | 30.2 µM (inactive) | 55.5 µM (inactive) | 69.2 µM (inactive) | 16.7 µM (inactive) | – | 30.8 µM (inactive) | 24.1 µM (inactive) | 16.7 µM (inactive) | 13.5 µM (inactive) | 37.5 µM (inactive) | 24 µM (inactive) | 18.3 µM (inactive) | 20.6 µM (inactive) | 23.8 µM (inactive) | 10.4 µM (inactive) | 35.3 µM (inactive) | 63.2 µM (inactive) | 3.94 µM (inactive) | 31.1 µM (inactive)
6 | CC(C)OP(=O)(OC(C)C)c1c(N)n[nH]c1Nc1ccccc1 | > 100 µM (inactive) | > 100 µM (inactive) | > 100 µM (inactive) | > 100 µM (inactive) | > 100 µM (inactive) | > 100 | > 100 µM (inactive) | > 100 µM (inactive) | > 100 µM (inactive) | > 100 µM (inactive) | > 100 µM (inactive) | > 100 µM (inactive) | > 100 µM (inactive) | > 100 µM (inactive) | > 100 µM (inactive) | > 100 µM (inactive) | > 100 µM (inactive) | > 100 µM (inactive) | > 100 µM (inactive) | > 100 µM (inactive)
7 | CN1CCC23c4ccccc4NC1C21CCN(C)C3Nc2ccccc21 | > 375 µM (inactive) | > 375 µM (inactive) | 130 µM (inactive) | > 375 µM (inactive) | > 375 µM (inactive) | > 375 | 75.5 µM (inactive) | 206 µM (inactive) | > 375 µM (inactive) | 249 µM (inactive) | 151 µM (inactive) | > 301 µM (inactive) | > 375 µM (inactive) | 152 µM (inactive) | 268 µM (inactive) | > 375 µM (inactive) | > 375 µM (inactive) | > 375 µM (inactive) | > 375 µM (inactive) | 102 µM (inactive)
8 | N=C(N)SCc1cccc([N+](=O)[O-])c1 | 39.5 µM (inactive) | 31.9 µM (inactive) | 22.1 µM (inactive) | 30.3 µM (inactive) | 30.1 µM (inactive) | 34.5 | 24.4 µM (inactive) | 24.3 µM (inactive) | 24 µM (inactive) | 34.2 µM (inactive) | 32.7 µM (inactive) | 36.8 µM (inactive) | 34.1 µM (inactive) | 24.8 µM (inactive) | 24.4 µM (inactive) | 18.6 µM (inactive) | 44.7 µM (inactive) | > 10 µM (inactive) | 13.5 µM (inactive) | 33 µM (inactive)
9 | CC(=O)Oc1cc2c(cc1OC(C)=O)OCC(c1ccc(C)cc1)C2 (stereo unspecified) | 11.7 µM (inactive) | 18.7 µM (inactive) | 17.1 µM (inactive) | 13 µM (inactive) | 29.2 µM (inactive) | 19.6 | 21.7 µM (inactive) | 27.1 µM (inactive) | 20 µM (inactive) | 19 µM (inactive) | 7.19 µM (inactive) | 20.6 µM (inactive) | 15.1 µM (inactive) | 17.5 µM (inactive) | 21.6 µM (inactive) | 21.6 µM (inactive) | 9.91 µM (inactive) | 31.4 µM (inactive) | 2.64 µM (inactive) | 10.5 µM (inactive)
10 | COc1ccc(N2C(=O)C3c4[nH]c5ccccc5c4C4CCCCCCCCCC4C3C2=O)cc1 (stereo unspecified) | > 10 µM (inactive) | > 10 µM (inactive) | > 10 µM (inactive) | > 10 µM (inactive) | > 10 µM (inactive) | > 10 | > 10 µM (inactive) | > 10 µM (inactive) | > 10 µM (inactive) | > 10 µM (inactive) | > 10 µM (inactive) | > 10 µM (inactive) | > 10 µM (inactive) | > 10 µM (inactive) | > 10 µM (inactive) | > 10 µM (inactive) | > 10 µM (inactive) | > 10 µM (inactive) | > 10 µM (inactive) | > 10 µM (inactive)
11 | CNS(=O)(=O)c1ccc2c(c1)/C(=C1/Nc3ccccc3C1=O)C(=O)N2 | > 100 µM (inactive) | > 100 µM (inactive) | > 100 µM (inactive) | – | > 100 µM (inactive) | 49.4 | > 100 µM (inactive) | > 100 µM (inactive) | > 100 µM (inactive) | > 100 µM (inactive) | 39.6 µM (inactive) | > 100 µM (inactive) | > 100 µM (inactive) | > 100 µM (inactive) | – | > 100 µM (inactive) | 5.04 µM (inactive) | 20.9 µM (inactive) | > 100 µM (inactive) | > 100 µM (inactive)
12 | c1cc2c3c(c1)c1cc4c(cc1c[n+]3CC2)OCO4 [ANHYDROLYCORINIUM CHLORIDE] | 5.85 µM (inactive) | 25.5 µM (inactive) | 4.47 µM (inactive) | 0.383 µM (active) | 7.4 µM (inactive) | > 164 | 12.5 µM (inactive) | 1.25 µM (inactive) | 4.26 µM (inactive) | 0.871 µM (active) | 1.25 µM (inactive) | > 127 µM (inactive) | 3.73 µM (inactive) | 6.12 µM (inactive) | 0.582 µM (active) | 3.4 µM (inactive) | 0.811 µM (active) | 1.17 µM (inactive) | 2.3 µM (inactive) | 0.618 µM (active)
13 | CCCCCCCCCCCCCCCCCCOCC(O)CO (stereo unspecified) [BATILOL] | 21.7 µM (inactive) | > 21.9 µM (inactive) | > 22.4 µM (inactive) | 21.9 µM (inactive) | 14.5 µM (inactive) | > 25 | 3.57 µM (inactive) | > 21.6 µM (inactive) | > 24.2 µM (inactive) | > 11.1 µM (inactive) | 17.2 µM (inactive) | 12.5 µM (inactive) | > 20.2 µM (inactive) | 16.7 µM (inactive) | 21.6 µM (inactive) | > 23.9 µM (inactive) | > 25 µM (inactive) | > 25 µM (inactive) | 9.18 µM (inactive) | > 25 µM (inactive)
